15 compounds from patent US20260078119A1, “DEGRADER COMPOUNDS AND USES THEREOF” (Bristol-Myers Squibb Company, priority 2024, published 2026) can be followed below.

What is called EC50 is the midpoint of the concentration-response curve.

One experiment concerns CAL-51 cells. Kind of experiment: CAL-51 Cell Proliferation Assay. The conditions noted are these: for EC50: Homo sapiens, 120 hours incubation, 10-point dose response, 4-fold dilutions starting at 10 μM, Cell-Titer-Glo, read-out: CAL-51 Prolif EC50; for CAL-51 Prolif Ymin: minimal percent of DMSO control observed in the concentrations tested (Ymin-obs), 120 hours. It counts as cell-based. The gist of the method:
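Cells seeded at 350/well in RPMI complete medium onto 10-point, 4-fold compound dilutions from 10 μM (0.1% DMSO), in duplicate, and grown 120 h at 37 °C. CellTiter-Glo luminescence, blank-subtracted and normalised to DMSO, was fitted with a four-parameter logistic to give EC50; Ymin-obs is the lowest observed percent of DMSO control.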

In another experiment the target is T1, FAK (Homo sapiens, UniProt Q05397).
T1 construct: homozygous knock-in of a HiBiT tag (Promega Corporation, Madison, WI) to the C-terminus of the FAK gene in its natural genomic locus; endogenous in cells; host or cells: JHH-4-FAK-HiBiT clone d01 (CRISPR-Cas9 knock-in at the endogenous locus)
T1 sequence (Q05397 whole entry): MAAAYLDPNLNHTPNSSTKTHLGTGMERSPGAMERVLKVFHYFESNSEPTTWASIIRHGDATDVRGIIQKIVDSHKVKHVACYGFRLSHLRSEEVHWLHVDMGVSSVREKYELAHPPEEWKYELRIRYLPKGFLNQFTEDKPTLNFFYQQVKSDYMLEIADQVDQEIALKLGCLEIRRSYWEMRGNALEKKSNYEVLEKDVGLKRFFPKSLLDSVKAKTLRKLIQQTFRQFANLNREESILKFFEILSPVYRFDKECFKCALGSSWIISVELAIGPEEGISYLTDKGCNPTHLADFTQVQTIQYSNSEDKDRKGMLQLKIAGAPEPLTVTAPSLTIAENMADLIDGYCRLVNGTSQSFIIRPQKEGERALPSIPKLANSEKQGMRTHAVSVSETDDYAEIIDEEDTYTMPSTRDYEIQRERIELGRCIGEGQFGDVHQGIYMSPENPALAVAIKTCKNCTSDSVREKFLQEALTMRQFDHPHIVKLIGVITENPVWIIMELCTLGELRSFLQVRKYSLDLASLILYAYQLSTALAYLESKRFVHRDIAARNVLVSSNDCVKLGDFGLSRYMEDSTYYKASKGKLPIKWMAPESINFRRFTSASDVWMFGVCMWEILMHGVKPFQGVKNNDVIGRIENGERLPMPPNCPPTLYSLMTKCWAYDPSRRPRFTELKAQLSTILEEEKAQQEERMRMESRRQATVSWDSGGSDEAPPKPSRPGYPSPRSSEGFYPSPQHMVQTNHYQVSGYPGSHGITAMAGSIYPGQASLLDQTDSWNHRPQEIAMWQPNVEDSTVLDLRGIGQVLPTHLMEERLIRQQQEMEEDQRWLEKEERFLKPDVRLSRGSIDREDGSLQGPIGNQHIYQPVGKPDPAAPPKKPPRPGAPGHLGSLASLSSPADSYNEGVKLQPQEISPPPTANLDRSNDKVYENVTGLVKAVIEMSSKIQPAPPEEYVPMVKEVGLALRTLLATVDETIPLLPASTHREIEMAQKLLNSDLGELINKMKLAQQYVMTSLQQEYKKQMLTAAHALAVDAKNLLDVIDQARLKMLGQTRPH
Kind of experiment: FAK-HiBiT Degradation Assay. It counts as cell-based. Particulars: for DC50: JHH-4-FAK-HiBiT clone d01 cells, two hours incubation, 10-point dose response, 3-fold dilution starting at 1 μM, Nano-Glo HiBiT luminescence, read-out: FAK HiBiT EC50; for FAK HiBiT Ymin: lower limit of the four parameter fit (value A), Ymax derived using DMSO control, JHH-4-FAK-HiBiT cells, two hours. The method in brief: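 JHH-4 cells with homozygous CRISPR knock-in of C-terminal HiBiT on endogenous FAK, treated 2 h at 37 °C with compounds in 10-point 3-fold series from 1 μM. HiBiT lytic luminescence read; EC50 from four-parameter logistic fit, Ymax set by DMSO control, Ymin as lower fit limit.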
For orientation: HiBiT is a short tag that completes a luciferase, so light tracks the accessible tagged protein.

The structures appear in SMILES notation.

Take `Cc1nc2c(-c3ccc(C(F)(F)F)cc3Cl)cc(N3CC(F)C3)nc2n1Cc1ccc2c(c1)CN(C1CCC(=O)NC1=O)C2=O` (stereo not drawn) [Example 20, 3-(5-((7-(2-chloro-4-(trifluoromethyl)phenyl)-5-(3-fluoroazetidin-1-yl)-2-methyl-3H-imidazo[4,5-b]pyridin-3-yl)methyl)-1-oxoisoindolin-2-yl)piperidine-2,6-dione]: in the experiment on CAL-51 cells, the EC50 stood at 0.37 nM and the “CAL-51 Prolif Ymin” value worked out at 24.38. Besides, at FAK, the DC50 came to 0.89 nM and the “FAK HiBiT Ymin” value is recorded as 7.90.

In the case of `CN1CCN(c2cc(-c3ncc(C(F)(F)F)cc3Cl)c3cnn(Cc4ccc5c(c4)CN([C@H]4CCC(=O)NC4=O)C5=O)c3n2)CC1` [Example 136, (3S)-3-[5-({4-[3-chloro-5-(trifluoromethyl)pyridin-2-yl]-6-(4-methylpiperazin-1-yl)-1H-pyrazolo[3,4-b]pyridin-1-yl}methyl)-1-oxo-2,3-dihydro-1H-isoindol-2-yl]piperidine-2,6-dione], in the experiment on CAL-51 cells, the 50% effective concentration (EC50) is at least 10000 nM and the “CAL-51 Prolif Ymin” value is reported as 95.61. Further, at FAK, the DC50 is at least 1000 nM and the “FAK HiBiT Ymin” value amounted to 96.76.

As to `O=C1CCC(N2Cc3cc(Cn4ccc5c(-c6ncc(C(F)(F)F)cc6Cl)cc(N6CC(F)C6)nc54)ccc3C2=O)C(=O)N1` (stereo not drawn) [Example 15, 3-(5-((4-(3-chloro-5-(trifluoromethyl)pyridin-2-yl)-6-(3-fluoroazetidin-1-yl)-1H-pyrrolo[2,3-b]pyridin-1-yl)methyl)-1-oxoisoindolin-2-yl)piperidine-2,6-dione], in the experiment on CAL-51 cells, the EC50 stood at 0.89 nM and the “CAL-51 Prolif Ymin” value was found to be 29.00. At FAK, the DC50 was 0.95 nM and the “FAK HiBiT Ymin” value worked out at 7.50.

As to `O=C1CCC(N2Cc3cc(Cn4ncc5c(-c6ncc(OCC(F)(F)F)cc6Cl)cc(N6CC(F)C6)nc54)ccc3C2=O)C(=O)N1` (stereo not drawn) [Example 59, 3-[5-({4-[3-chloro-5-(2,2,2-trifluoroethoxy)pyridin-2-yl]-6-(3-fluoroazetidin-1-yl)-1H-pyrazolo[3,4-b]pyridin-1-yl}methyl)-1-oxo-2,3-dihydro-1H-isoindol-2-yl]piperidine-2,6-dione], in the experiment with CAL-51 cells, the EC50 was found to be 0.87 nM and the “CAL-51 Prolif Ymin” value is listed as 28.60. For the same compound, on FAK, the DC50 turned out to be 3.54 nM and the “FAK HiBiT Ymin” value was determined as 10.50.

For the compound `O=C1CCC(N2Cc3cc(Cn4ncc5c(-c6ncccc6Br)cc(N6CC(F)C6)nc54)ccc3C2=O)C(=O)N1` (stereo not drawn) [Example 93, 3-(5-{[4-(3-bromopyridin-2-yl)-6-(3-fluoroazetidin-1-yl)-1H-pyrazolo[3,4-b]pyridin-1-yl]methyl}-1-oxo-2,3-dihydro-1H-isoindol-2-yl)piperidine-2,6-dione], in the experiment with CAL-51 cells, the EC50 is 9.36 nM and the “CAL-51 Prolif Ymin” value was determined as 36.26. Besides, at FAK, the DC50 is 15.5 nM and the “FAK HiBiT Ymin” value is on record as 16.43.

`O=C1CCC(N2Cc3cc(Cn4ncc5c(-c6nnccc6C(F)(F)F)cc(N6CC(F)C6)nc54)ccc3C2=O)C(=O)N1` (stereo not drawn) [Example 129, 3-(5-{[6-(3-fluoroazetidin-1-yl)-4-[4-(trifluoromethyl)pyridazin-3-yl]-1H-pyrazolo[3,4-b]pyridin-1-yl]methyl}-1-oxo-2,3-dihydro-1H-isoindol-2-yl)piperidine-2,6-dione]: in the experiment on CAL-51 cells, the 50% effective concentration (EC50) was 499 nM and the “CAL-51 Prolif Ymin” value stood at 92.49. Also, at FAK, the DC50 is at least 1000 nM and the “FAK HiBiT Ymin” value turned out to be 95.34.

With `O=C1CCC(N2Cc3cc(Cn4ncc5c(-c6ccc(C(F)(F)F)cc6Cl)cc(N6CC(F)C6)nc54)ccc3C2=O)C(=O)N1` (stereo not drawn) [Example 48, 3-[5-({4-[2-chloro-4-(trifluoromethyl)phenyl]-6-(3-fluoroazetidin-1-yl)-1H-pyrazolo[3,4-b]pyridin-1-yl}methyl)-1-oxo-2,3-dihydro-1H-isoindol-2-yl]piperidine-2,6-dione], in the experiment with CAL-51 cells, the EC50 is 0.52 nM and the “CAL-51 Prolif Ymin” value amounted to 19.89. At FAK, the DC50 worked out at 1.87 nM and the “FAK HiBiT Ymin” value amounted to 8.06.

On to `CN(c1cc(-c2ncc(C(F)(F)F)cc2Cl)c2cnn(Cc3ccc4c(c3)CN([C@H]3CCC(=O)NC3=O)C4=O)c2n1)[C@H]1C[C@@H](O)C1` [Example 120, (3R)-3-[5-({4-[3-chloro-5-(trifluoromethyl)pyridin-2-yl]-6-{methyl[(1s,3s)-3-hydroxycyclobutyl]amino}-1H-pyrazolo[3,4-b]pyridin-1-yl}methyl)-1-oxo-2,3-dihydro-1H-isoindol-2-yl]piperidine-2,6-dione], for which, in the experiment on CAL-51 cells, the 50% effective concentration (EC50) was determined as 3.03 nM and the “CAL-51 Prolif Ymin” value stood at 28.57. At FAK, the DC50 amounted to 87.1 nM and the “FAK HiBiT Ymin” value was found to be 12.66.

In the case of `O=C1CC[C@H](N2Cc3cc(Cn4ncc5c(-c6ncc(F)cc6Cl)cc(N6CC(F)C6)nc54)cc(F)c3C2=O)C(=O)N1` [Example 42, (3S)-3-(5-{[4-(3-chloro-5-fluoropyridin-2-yl)-6-(3-fluoroazetidin-1-yl)-1H-pyrazolo[3,4-b]pyridin-1-yl]methyl}-7-fluoro-1-oxo-2,3-dihydro-1H-isoindol-2-yl)piperidine-2,6-dione], in the experiment with CAL-51 cells, the concentration giving a half-maximal response (EC50) was determined as 1.92 nM and the “CAL-51 Prolif Ymin” value was determined as 24.80. Besides, at FAK, the DC50 was determined as 1.24 nM and the “FAK HiBiT Ymin” value came out at 5.70.

On to `CCOc1ccc(-c2cc(N3CC(F)C3)nc3c2cnn3Cc2ccc3c(c2)CN([C@H]2CCC(=O)NC2=O)C3=O)c(C)c1` [Example 39, (3S)-3-(5-{[4-(4-ethoxy-2-methylphenyl)-6-(3-fluoroazetidin-1-yl)-1H-pyrazolo[3,4-b]pyridin-1-yl]methyl}-1-oxo-2,3-dihydro-1H-isoindol-2-yl)piperidine-2,6-dione], for which, in the experiment on CAL-51 cells, the EC50 was found to be 0.82 nM and the “CAL-51 Prolif Ymin” value is recorded as 28.13. In addition, at FAK, the DC50 amounted to 1.12 nM and the “FAK HiBiT Ymin” value was 7.78.

For the compound `CC(C)Nc1cc(-c2ncc(C(F)(F)F)cc2Cl)c2cnn(Cc3ccc4c(c3)CN([C@H]3CCC(=O)NC3=O)C4=O)c2n1` [Example 45, (3S)-3-[5-({4-[3-chloro-5-(trifluoromethyl)pyridin-2-yl]-6-[(propan-2-yl)amino]-1H-pyrazolo[3,4-b]pyridin-1-yl}methyl)-1-oxo-2,3-dihydro-1H-isoindol-2-yl]piperidine-2,6-dione], in the experiment with CAL-51 cells, the EC50 was 0.76 nM and the “CAL-51 Prolif Ymin” value was found to be 30.48. Further, on FAK, the DC50 was determined as 1.76 nM and the “FAK HiBiT Ymin” value came out at 6.88.

In the case of `O=C1CC[C@H](N2Cc3cc(Cn4ncc5c(-c6ccc(OCC(F)(F)F)cc6Cl)cc(N6CC(F)C6)nc54)ccc3C2=O)C(=O)N1` [Example 52, (3S)-3-[5-({4-[2-chloro-4-(2,2,2-trifluoroethoxy)phenyl]-6-(3-fluoroazetidin-1-yl)-1H-pyrazolo[3,4-b]pyridin-1-yl}methyl)-1-oxo-2,3-dihydro-1H-isoindol-2-yl]piperidine-2,6-dione], in the experiment with CAL-51 cells, the EC50 came out at 1.13 nM and the “CAL-51 Prolif Ymin” value worked out at 22.49. Also, on FAK, the DC50 came to 2.4 nM and the “FAK HiBiT Ymin” value was 8.38.

On to `Cc1cc(OC(F)F)cnc1-c1cc(N2CC(F)C2)nc2c1cnn2Cc1ccc2c(c1)CN([C@H]1CCC(=O)NC1=O)C2=O` [Example 66, (3S)-3-[5-({4-[5-(difluoromethoxy)-3-methylpyridin-2-yl]-6-(3-fluoroazetidin-1-yl)-1H-pyrazolo[3,4-b]pyridin-1-yl}methyl)-1-oxo-2,3-dihydro-1H-isoindol-2-yl]piperidine-2,6-dione], for which, in the experiment with CAL-51 cells, the EC50 came to 1.72 nM and the “CAL-51 Prolif Ymin” value is listed as 27.43. Also, on FAK, the DC50 was determined as 4.63 nM and the “FAK HiBiT Ymin” value came to 7.72.

On to `O=C1CCC(N2Cc3cc(Cn4ncc5c(-c6ncc(C(F)(F)F)cc6Cl)c(F)c(N6CC(F)C6)nc54)ccc3C2=O)C(=O)N1` (stereo not drawn) [Example 3, 3-[5-({4-[3-chloro-5-(trifluoromethyl)pyridin-2-yl]-5-fluoro-6-(3-fluoroazetidin-1-yl)-1H-pyrazolo[3,4-b]pyridin-1-yl}methyl)-1-oxo-2,3-dihydro-1H-isoindol-2-yl]piperidine-2,6-dione], for which, in the experiment on CAL-51 cells, the concentration for a half-maximal effect (EC50) was determined as 1.42 nM and the “CAL-51 Prolif Ymin” value is recorded as 23.98. Moreover, at FAK, the DC50 was determined as 0.29 nM and the “FAK HiBiT Ymin” value is given as 8.97.

As for `CN(c1cc(-c2ncc(C(F)(F)F)cc2Cl)c2cnn(Cc3ccc4c(c3)CN([C@H]3CCC(=O)NC3=O)C4=O)c2n1)C1CC(C)(O)C1` (stereo partly drawn) [Example 83, (3S)-3-[5-({4-[3-chloro-5-(trifluoromethyl)pyridin-2-yl]-6-{methyl[(1r,3s)-3-hydroxy-3-methylcyclobutyl]amino}-1H-pyrazolo[3,4-b]pyridin-1-yl}methyl)-1-oxo-2,3-dihydro-1H-isoindol-2-yl]piperidine-2,6-dione], in the experiment on CAL-51 cells, the concentration giving a half-maximal response (EC50) amounted to 5.41 nM and the “CAL-51 Prolif Ymin” value is reported as 30.14. Besides, at FAK, the DC50 turned out to be 10.2 nM and the “FAK HiBiT Ymin” value came out at 10.27.
